Measurements reported in ChEMBL document CHEMBL1201862, “PubChem BioAssay data set” (2004).
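Briefly, cells in 96-well plates were exposed to five compound concentrations for 48 h, and endpoints were estimated by linear interpolation. GI50 is the concentration that inhibits growth by half.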 The source made the active and inactive calls. Cut-off read from the data, not from the text of the source: active = GI50 up to about 1.1 µM and inactive = higher.

Tests used:
Assay in all cases: NCI anticancer screen, dose series, 48 h
A549 = test system: A549
CCRF-CEM = test system: CCRF-CEM
COLO 205 = test system: COLO 205
HCC 2998 = test system: HCC 2998
HL-60 = test system: HL-60
Hs-578T = test system: Hs-578T
IGROV-1 = test system: IGROV-1
MCF7 = test system: MCF7
NCI/ADR-RES = test system: NCI/ADR-RES
OVCAR-4 = test system: OVCAR-4
OVCAR-8 = test system: OVCAR-8
PC-3 = test system: PC-3
RPMI-8226 = test system: RPMI-8226
SF-295 = test system: SF-295
SK-MEL-2 = test system: SK-MEL-2
SK-OV-3 = test system: SK-OV-3
TK-10 = test system: TK-10
UACC-257 = test system: UACC-257
UO-31 = test system: UO-31
Malme-3M = test system: Malme-3M

Compound | GI50 (A549) | GI50 (CCRF-CEM) | GI50 (COLO 205) | GI50 (HCC 2998) | GI50 (HL-60) | GI50 (Hs-578T) | GI50 (IGROV-1) | GI50 (MCF7) | GI50 (NCI/ADR-RES) | GI50 (OVCAR-4) | GI50 (OVCAR-8) | GI50 (PC-3) | GI50 (RPMI-8226) | GI50 (SF-295) | GI50 (SK-MEL-2) | GI50 (SK-OV-3) | GI50 (TK-10) | GI50 (UACC-257) | GI50 (UO-31) | GI50 (Malme-3M)
O=CNc1ccc2c(c1)C(=O)c1ccccc1-2 | > 100 µM (inactive) | 41.2 µM (inactive) | 67.5 µM (inactive) | > 100 µM (inactive) | 49.1 µM (inactive) | 24.1 µM (inactive) | 44.1 µM (inactive) | 20.8 µM (inactive) | > 100 µM (inactive) | > 100 µM (inactive) | 50.9 µM (inactive) | 68.2 µM (inactive) | 61.4 µM (inactive) | > 100 µM (inactive) | > 100 µM (inactive) | > 100 µM (inactive) | > 100 µM (inactive) | > 100 µM (inactive) | 47.3 µM (inactive) | 
Oc1cc(-c2cccc3ccccc23)nc2ncccc12 | 0.0481 µM (active) | 0.0245 µM (active) | 0.0154 µM (active) | 0.0745 µM (active) | 0.00401 µM (active) | 0.0524 µM (active) | 0.0611 µM (active) | 0.00693 µM (active) | 0.0206 µM (active) | 0.0542 µM (active) | 0.05 µM (active) | 0.0182 µM (active) | 0.0243 µM (active) | 0.0388 µM (active) | 0.0178 µM (active) | 0.0176 µM (active) |  | 0.00152 µM (active) | 0.0402 µM (active) | 0.00225 µM (active)
Clc1ccc(-c2nn3c(COc4ccc(OCc5nnc6sc(-c7ccc(Cl)cc7)nn56)c(Cl)c4)nnc3s2)cc1 | 24.4 µM (inactive) |  | 57.8 µM (inactive) | 20.2 µM (inactive) | 17.7 µM (inactive) | 30.3 µM (inactive) | 18.9 µM (inactive) | 35.7 µM (inactive) | 27.7 µM (inactive) | 25.5 µM (inactive) | 22 µM (inactive) | 31 µM (inactive) | 24.5 µM (inactive) | 26.5 µM (inactive) | 53.3 µM (inactive) | 27.3 µM (inactive) | 17.5 µM (inactive) | 44.7 µM (inactive) | 17.3 µM (inactive) | 37.3 µM (inactive)
O=C1C(Cl)=C(NCCN2CCOCC2)C(=O)c2c(O)ccc(O)c21 | 2.12 µM (inactive) | 1.56 µM (inactive) | 1.5 µM (inactive) | 1.89 µM (inactive) |  | 3.13 µM (inactive) | 1.88 µM (inactive) | 1.42 µM (inactive) | 2.09 µM (inactive) | 1.72 µM (inactive) | 3.25 µM (inactive) | 2.2 µM (inactive) |  | 1.87 µM (inactive) |  | 10 µM (inactive) | 8.85 µM (inactive) | 2.11 µM (inactive) | 2.36 µM (inactive) | 1.84 µM (inactive)
CSCCC(NC(=O)Cc1ccc(C(=O)c2ccccc2)cc1)C(=O)O (stereo not given) | > 100 µM (inactive) | > 100 µM (inactive) | > 100 µM (inactive) | > 100 µM (inactive) | > 100 µM (inactive) | > 100 µM (inactive) | > 100 µM (inactive) | > 100 µM (inactive) | > 100 µM (inactive) | > 100 µM (inactive) | > 100 µM (inactive) | > 100 µM (inactive) |  | > 100 µM (inactive) | > 100 µM (inactive) | > 100 µM (inactive) | > 100 µM (inactive) | > 100 µM (inactive) | > 100 µM (inactive) | > 100 µM (inactive)
CC(=O)Oc1ccc(-c2cc3ccccc3oc2=O)cc1 | > 100 µM (inactive) | > 100 µM (inactive) | > 100 µM (inactive) | > 100 µM (inactive) | 24.8 µM (inactive) | > 100 µM (inactive) |  | > 100 µM (inactive) | > 100 µM (inactive) | > 100 µM (inactive) | > 100 µM (inactive) | > 100 µM (inactive) | > 100 µM (inactive) | 43.9 µM (inactive) | > 100 µM (inactive) |  | > 100 µM (inactive) | > 100 µM (inactive) | > 100 µM (inactive) | > 100 µM (inactive)
C[C@@H]1CC[C@@]2(OC1)O[C@H]1[C@@H](O)[C@H]3[C@@H]4CC[C@H]5C[C@@H](O[C@@H]6O[C@H](CO)[C@H](O[C@@H]7O[C@H](CO)C(O)[C@H](O[C@@H]8OC[C@@H](O)[C@H](O)[C@H]8O)[C@H]7O[C@@H]7O[C@H](CO)[C@H](O)[C@H](O[C@@H]8O[C@H](CO)[C@@H](O)[C@H](O)[C@H]8O)[C@H]7O)[C@H](O)[C@H]6O)[C@H](O)C[C@]5(C)[C@H]4CC[C@]3(C)[C@H]1[C@@H]2C (stereo not given in full) [DIGITONIN] | 2.17 µM (inactive) | 2.86 µM (inactive) | 1.68 µM (inactive) | 1.66 µM (inactive) | 2.9 µM (inactive) | 2.06 µM (inactive) | 2.83 µM (inactive) | 2.18 µM (inactive) | 3.89 µM (inactive) | 1.97 µM (inactive) | 2.02 µM (inactive) | 2.57 µM (inactive) | 3.15 µM (inactive) | 1.82 µM (inactive) | 3.37 µM (inactive) | 2.36 µM (inactive) | 2.49 µM (inactive) | 8.38 µM (inactive) | 1.94 µM (inactive) | 
